Test results from patent publication US20250059174A1, “Pharmaceutical Compounds and Compositions as C-Kit Kinase Inhibitors” (Enanta Pharmaceuticals, Inc., priority 2023, published 2025).

How the values were obtained:
[1] = biological target: Recombinant human c-KIT kinase (Homo sapiens (Human), UniProt P10721); experiment: c-KIT kinase chemiluminescence assay (ADP-Glo); assay type: biochemical; conditions: ATP 50 μM
Outline: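 Recombinant human c-KIT preincubated 30 min at RT in 40 mM Tris pH 7.5, 20 mM MgCl2, 0.1 mg/mL BSA, 50 μM DTT, then reacted 2 h at RT with ATP and polyEY substrate. ADP-Glo luminescence readout; activity normalized to high/low controls, IC50 and Hill coefficient from inhibitor-versus-normalized-response fit.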

[2] = system: M-07e cells; experiment: M-07e cellular assay (SCF-mediated cell proliferation); assay type: cell-based; conditions: Homo sapiens, 72 hours, CellTiter Glo
Outline: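 CellTiter Glo luminescence after 72 h compound exposure in SCF (EC90)-stimulated M-07e cells expressing endogenous human c-KIT.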

Chain of Recombinant human c-KIT kinase (P10721 26-976): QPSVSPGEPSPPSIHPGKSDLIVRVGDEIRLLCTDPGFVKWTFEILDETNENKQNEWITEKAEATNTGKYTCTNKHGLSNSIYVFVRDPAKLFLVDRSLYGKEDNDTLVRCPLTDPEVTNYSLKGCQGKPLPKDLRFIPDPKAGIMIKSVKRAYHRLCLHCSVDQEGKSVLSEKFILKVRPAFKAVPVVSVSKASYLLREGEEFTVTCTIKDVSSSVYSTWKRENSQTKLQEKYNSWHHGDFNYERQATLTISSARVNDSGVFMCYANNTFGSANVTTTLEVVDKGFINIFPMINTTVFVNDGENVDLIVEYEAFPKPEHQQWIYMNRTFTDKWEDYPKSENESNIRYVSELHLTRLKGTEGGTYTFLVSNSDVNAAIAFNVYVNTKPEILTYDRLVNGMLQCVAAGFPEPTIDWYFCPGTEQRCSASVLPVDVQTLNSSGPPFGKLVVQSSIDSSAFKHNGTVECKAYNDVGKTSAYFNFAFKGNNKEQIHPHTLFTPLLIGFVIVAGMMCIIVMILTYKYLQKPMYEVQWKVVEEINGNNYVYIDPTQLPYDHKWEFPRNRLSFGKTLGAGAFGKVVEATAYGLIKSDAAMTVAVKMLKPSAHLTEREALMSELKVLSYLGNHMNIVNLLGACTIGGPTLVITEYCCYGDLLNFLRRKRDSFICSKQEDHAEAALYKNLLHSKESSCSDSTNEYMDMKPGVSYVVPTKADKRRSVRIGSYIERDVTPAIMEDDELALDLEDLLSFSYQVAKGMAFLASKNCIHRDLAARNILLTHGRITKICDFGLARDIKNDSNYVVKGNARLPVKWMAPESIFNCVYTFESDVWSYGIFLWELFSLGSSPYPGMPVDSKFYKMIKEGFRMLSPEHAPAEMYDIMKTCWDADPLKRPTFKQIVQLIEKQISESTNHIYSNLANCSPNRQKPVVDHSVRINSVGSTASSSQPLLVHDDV

SMILES | IC50 [1] [µM] | EC50 [2] [µM]
COC(=O)N1CCC(c2nc(-c3ccc(C)c(NC(=O)c4cnn5ccc(N6CC7(C6)CC(O)(C(F)F)C7)cc45)c3)no2)CC1 [Example 281-134] | < 0.1 | < 0.1
Cc1ccc(-c2noc([C@]3(C)C[C@H](OC(F)F)C3)n2)cc1NC(=O)c1cnn2ccc(N3CC4(COC4)C3)cc12 [Example 281] | < 0.1 | < 0.1
COc1cccc(-c2ncc(C(=O)Nc3cc(-c4noc([C@H]5C[C@@H]5F)n4)ccc3C)o2)c1 [Example 283] | 0.1 to 1 | < 0.1
COc1ccccc1-c1ncc(C(=O)Nc2cc(-c3noc([C@H]4C[C@@H]4F)n3)ccc2C)o1 [Example 284] | > 1 | > 1
Cc1ccc(-c2noc([C@H]3C[C@@H]3F)n2)cc1NC(=O)c1cnc(-c2cccnc2)o1 [Example 285] | > 1 | > 1
Cc1ccc(-c2noc([C@H]3C[C@@H]3F)n2)cc1NC(=O)c1cnc(-c2ccncc2)o1 [Example 286] | > 1 | 0.1 to 1
Cc1ccc(-c2noc([C@H]3C[C@@H]3F)n2)cc1NC(=O)c1cnc(-c2ccc(N)nc2)o1 [Example 287] | 0.1 to 1 | 0.1 to 1
Cc1ccc(-c2noc([C@H]3C[C@@H]3F)n2)cc1NC(=O)c1cnc(-c2cccc(N3CC4(COC4)C3)c2)o1 [Example 288] | 0.1 to 1 | 0.1 to 1
Cc1ccc(-c2noc([C@H]3C[C@@H]3F)n2)cc1NC(=O)c1cnc(-c2ccccc2N2CC3(COC3)C2)o1 [Example 289] | > 1 | > 1
Cc1ccc(-c2noc([C@H]3C[C@@H]3F)n2)cc1NC(=O)c1cnc(-c2ccnc(N)c2)o1 [Example 290] | 0.1 to 1 | 0.1 to 1
Cc1ccc(-c2noc([C@H]3C[C@@H]3F)n2)cc1NC(=O)c1cnc(-c2ccnc(NC(=O)OC(C)(C)C)c2)o1 [Example 291] | > 1 | > 1
Cc1ccc(-c2noc([C@H]3C[C@@H]3F)n2)cc1NC(=O)c1cnc(-c2ccc3[nH]ncc3c2)o1 [Example 292] | < 0.1 | < 0.1
Cc1ccc(-c2noc([C@H]3C[C@@H]3F)n2)cc1NC(=O)c1cnc(-c2ccc3[nH]ccc3c2)o1 [Example 293] | < 0.1 | < 0.1
Cc1ccc(-c2noc([C@H]3C[C@@H]3F)n2)cc1NC(=O)c1cnc(-c2ccc3cn[nH]c3c2)o1 [Example 294] | < 0.1 | 0.1 to 1
Cc1ccc(-c2noc([C@H]3C[C@@H]3F)n2)cc1NC(=O)c1cnc(-c2ccc3cc[nH]c3c2)o1 [Example 295] | < 0.1 | 0.1 to 1
Cc1ccc(-c2noc([C@H]3C[C@@H]3F)n2)cc1NC(=O)c1cnc(-c2ccccn2)o1 [Example 296] | > 1 | > 1
Cc1ccc(-c2noc([C@H]3C[C@@H]3F)n2)cc1NC(=O)c1cnc(-c2ccc(N3CC4(COC4)C3)cc2)o1 [Example 297] | 0.1 to 1 | 0.1 to 1
Cc1ccc(-c2noc([C@H]3C[C@@H]3F)n2)cc1NC(=O)c1cnc(-c2ccc(NC(=O)OC(C)(C)C)nc2)o1 [Example 298] | > 1 | 0.1 to 1
Cc1ccc(-c2noc([C@H]3C[C@@H]3F)n2)cc1NC(=O)c1cnc(-c2ccc3c(c2)CC(=O)N3)o1 [Example 299] | < 0.1 | < 0.1
Cc1ccc(-c2noc([C@H]3C[C@@H]3F)n2)cc1NC(=O)c1cnc(-c2ccc3[nH]c(=O)oc3c2)o1 [Example 300] | 0.1 to 1 | 0.1 to 1
Cc1ccc(-c2noc([C@H]3C[C@@H]3F)n2)cc1NC(=O)c1cnc(-c2ccc3c(c2)NC(=O)C3)o1 [Example 301] | 0.1 to 1 | > 1
Cc1ccc(-c2noc([C@H]3C[C@@H]3F)n2)cc1NC(=O)c1cnc(-c2ccc3[nH]c(=O)[nH]c3c2)o1 [Example 302] | < 0.1 | > 1
Cc1ccc(-c2noc([C@H]3C[C@@H]3F)n2)cc1NC(=O)c1cnc(-c2ccc3[nH]c4ccccc4c3c2)o1 [Example 303] | 0.1 to 1 | 0.1 to 1
Cc1ccc(-c2noc([C@H]3C[C@@H]3F)n2)cc1NC(=O)c1cnc(-c2ccc3[nH]c(C(F)(F)F)cc3c2)o1 [Example 304] | < 0.1 | < 0.1
Cc1ccc(-c2noc([C@H]3C[C@@H]3F)n2)cc1NC(=O)c1cnc(-c2cccc(N)n2)o1 [Example 305] | > 1 | > 1
Cc1ccc(-c2noc([C@H]3C[C@@H]3F)n2)cc1NC(=O)c1cnc(-c2cccc(NC(=O)OC(C)(C)C)n2)o1 [Example 306] | > 1 | > 1
